Measurements taken from patent publication US7569542B2, “Anti-microbial targeting chimeric pharmaceutical” (priority 1999, dated 2009).
Where no end group is shown, it is not given here.

Assays:
[1] = tested on: S. sanguis
[2] = tested on: S. mutans
[3] = tested on: Host cells; assay: Minimal Inhibitory Concentrations; assay type: cell-based
[4] = tested on: PAK cells; assay: Competition-binding experiment, labeled vs unlabeled Cat-1, fluorescent microscopy; set-up: species or system P. aeruginosa
Description: To further confirm the specificity of Cat-1 binding to Pak cells, competition-binding experiments were conducted. Labeled Cat-1 was mixed with increasing concentrations of unlabeled Cat-1, and fluorescent labeling of the target bacterial cells was measured by fluorescent microscopy.

[5] = Antimicrobial activity of targeting peptide alone; assay type: cell-based
[6] = tested on: P. aeruginosa Pak (ATCC); assay type: cell-based
Description: (§1) To test the antimicrobial activity of the fusion peptides against target bacteria, a panel of bacteria, both gram positive and gram negative, were tested.

[7] = tested on: P. fluorescens 1089; assay type: cell-based
Description: as §1

[8] = tested on: S. mutans 140; assay type: cell-based
Description: as §1

[9] = tested on: P. tabaci; assay type: cell-based
Description: as §1

[10] = tested on: E. coli W3110 ampR; assay type: cell-based
Description: as §1

[11] = tested on: S. oralis; assay type: cell-based
Description: as §1

[12] = tested on: E. coli Mg1665 (smooth); assay type: cell-based
Description: as §1

[13] = tested on: S. mitis; assay type: cell-based
Description: as §1

[14] = tested on: E. coli 3132 (wt); assay type: cell-based
Description: as §1

[15] = tested on: P. fluorescens 1088; assay type: cell-based
Description: as §1

[16] = tested on: Y. entercolitica; assay type: cell-based
Description: as §1

[17] = tested on: Myxococcus; assay type: cell-based
Description: as §1

[18] = tested on: Salmonella Lt2 (ATCC); assay type: cell-based
Description: as §1

[19] = tested on: S. sanguis; assay type: cell-based
Description: as §1

[20] = tested on: B. cepacia; assay type: cell-based
Description: as §1

[21] = tested on: S. mutans 159; assay type: cell-based
Description: as §1

[22] = tested on: E. coli W3110; assay type: cell-based
Description: as §1

[23] = tested on: Klebsiella Kay2026; assay type: cell-based
Description: as §1

[24] = tested on: P. mendocina; assay type: cell-based
Description: as §1

[25] = tested on: E. coli Aw405; assay type: cell-based
Description: as §1

[26] = tested on: P. aeruginosa Pak; assay type: cell-based; conditions: for MBC: Pak
Description: as §1

[27] = tested on: S. aureus; assay type: cell-based
Description: as §1

[28] = tested on: P. mendocina; assay type: cell-based, Pseudomonas mendocina
Description: (§2) Briefly, varying concentrations of peptide G10, G10CatC, or G10CatN was added to 10^5 of target bacterial cells and survivors were counted by plating samples after 0.5, 1, 2 and 4 minutes of peptide exposure.

[29] = tested on: P. mendocina; assay: Long-term time-kill experiment (up to 2 h); assay type: cell-based, Pseudomonas mendocina; conditions: for time to kill all input P. mendocina cells: 3 μM peptide; for surviving P. mendocina cells: 9 μM peptide
Description: Similar to the short-term kinetic studies described above, treatment with 3 μM G10CatC killed all input P. mendocina cells within 30 min, in contrast, it took 2 h for G10 alone to kill all input P. mendocina cells at the same concentration.

[30] = tested on: S. mutans cells; assay: Selective killing in mixed culture of PAK and S. mutans cells; assay type: cell-based; conditions: 9 μM peptide, within 4 min; mixed with PAK cells
From the text: (§3) In contrast, G10CatC killed over 90% of PAK cells, but none of S. mutans cells.

[31] = tested on: E. coli W3110; assay: Selective killing in mixed culture of P. mendocina and E. coli W3110; assay type: cell-based; conditions: 6 μM peptide, 4 min; mixed with P. mendocina; preliminary results
Description: (§4) To test if G10CatC can selectively kill its target bacteria in a mixed culture, 10^5 of P. mendocina and E. coli W3110 cells were mixed and treated with 6 μM G10 or G10CatC peptides. Samples were taken at 30 sec. 1 min, 2 min, and 4 min, and survivors were counted by plating assays.

[32] = tested on: P. mendocina; assay: as above; assay type: cell-based; conditions: 6 μM peptide, 4 min; mixed with E. coli W3110; preliminary results
Description: as §4

[33] = tested on: PAK cells; assay: Selective killing in mixed culture of PAK and S. mutans cells; assay type: cell-based, P. aeruginosa; conditions: 9 μM peptide, within 4 min; mixed with S. mutans
From the text: as §3

[34] = tested on: PAK cells; assay type: cell-based, Pseudomonas aeruginosa PAK; conditions: 18 μM peptide, up to 4 min
Description: as §2

Compound	MBC [6]	MBC [7]	MBC [8]	MBC [9]	MBC [10]	MBC [11]	MBC [12]	MBC [13]	MBC [14]	MBC [15]	MBC [16]	MBC [17]	MBC [18]	MBC [20]	MBC [22]	MBC [23]	MBC [24]	MBC [25]	MBC [26]	MBC [27]	also measured
C[C@H](NC(=O)[C@H](Cc1cnc[nH]1)NC(=O)[C@H](CO)NC(=O)[C@@H](N)CC(=O)O)C(=O)N[C@@H](CCCCN)C(=O)N[C@@H](CCCNC(=N)N)C(=O)N[C@@H](Cc1cnc[nH]1)C(=O)N[C@@H](Cc1cnc[nH]1)C(=O)NCC(=O)N[C@@H](Cc1ccc(O)cc1)C(=O)N[C@@H](CCCCN)C(=O)N[C@@H](CCCNC(=N)N)C(=O)N[C@@H](CCCCN)C(=O)N[C@@H](Cc1ccccc1)C(=O)N[C@@H](Cc1cnc[nH]1)C(=O)N[C@@H](CCC(=O)O)C(=O)N[C@@H](CCCCN)C(=O)N[C@@H](Cc1cnc[nH]1)C(=O)N[C@@H](Cc1cnc[nH]1)C(=O)N[C@@H](CO)C(=O)N[C@@H](Cc1cnc[nH]1)C(=O)N[C@@H](CCCNC(=N)N)C(=O)NCC(=O)N[C@@H](Cc1ccc(O)cc1)C(=O)O [Histatin 5, DSHAKRHHGY KRKFHEKHHS HRGY]	–	–	–	–	–	–	–	–	–	–	–	–	–	–	–	–	–	–	–	–	Minimal Inhibitory Concentrations [1]: ~10 µM; Minimal Inhibitory Concentrations [2]: ~10 µM; Minimal Inhibitory Concentrations [3]: >50 µM
KKHRKHRKHRKH (Design peptide) [Cat-1, 61]	–	–	–	–	–	–	–	–	–	–	–	–	–	–	–	–	–	–	–	–	fluorescent signal of labeled Cat-1 on PAK cells ([4]; 10× molar excess unlabeled Cat-1): completely abolished; fluorescent signal of labeled Cat-1 on PAK cells ([4]; equal molar concentration of unlabeled Cat-1 added): reduced; antimicrobial activity [5]: does not have any antimicrobial activity
KKHRKHRKHRKHGGSGGSKNLRRIIRKGIHIIKKYG [G10CatC]	4.9 µM	2.9 µM	3.6 to 7.25 µM	2.175 µM	2.9 µM	>58 µM	2.9 µM	>58 µM	5.8 µM	1.45 µM	23.2 µM	>11.6 µM	11.6 to 23.2 µM	13 µM	2.81 µM	11.6 to 23.2 µM	1.4 to 2.4 µM	11.6 µM	1.4 to 2.9 µM	>23.2 µM	MBC [19]: 3.6 to 7.25 µM; MBC [21]: 3.6 to 7.25 µM; MBC relative to G10 alone (higher) ([24]; P. mendocina): 2 ×; decrease of killing activity relative to G10 ([24]; against P. mendocina, from MBC): 2 fold; enhancement of killing activity relative to G10 ([26]; against Pak, from MBC): 38 fold; time to reduce live P. mendocina cells to below detectable levels ([28]; 3 μM peptide): ≤ 4 min; time to kill all input P. mendocina cells [29]: ≤ 30 min; surviving P. mendocina cells ([29]; after 2 minutes of treatment): no surviving P. mendocina cells were recovered; killing of S. mutans cells in mixed culture [30]: none; live W3110 cells in mixed culture [31]: remained nearly unchanged; live P. mendocina cells in mixed culture [32]: no live P. mendocina cells could be detected
KNLRRIIRKGIHIIKKYG [G10, KNLRRIIRKGIHIIKKYG, reference compound]	42.18 µM	>11.25 µM	3.5 to 7.03 µM	5.625 µM	2.8 µM	>58 µM	2.8 µM	>58 µM	11.25 µM	1.4 µM	22.5 µM	>11.25 µM	>22.5 µM	23 µM	1.4 µM	>11.25 µM	1.05 µM	2.8 µM	54.5 µM	>22.5 µM	MBC [19]: 3.5 to 7.03 µM; MBC [21]: 3.5 to 7.03 µM; killing activity ([28]; 3 μM peptide, within 4 min): did not display any killing activity; time to kill all input P. mendocina cells [29]: 120 min; surviving P. mendocina cells ([29]; after 30 minutes of exposure): a significant number of cells were recovered; killing of S. mutans cells in mixed culture [30]: did not kill any of the cells; live W3110 cells in mixed culture [31]: did not affect the survival; live P. mendocina cells in mixed culture [32]: did not affect the survival; killing of PAK cells in mixed culture [33]: did not kill any of the cells; killing activity [34]: did not show any killing activity
KNLRRIIRKGIHIIKKYGGGSGGSKKHRKHRKHRKH [G10CatN]	17.4 µM	11.6 µM	–	>11.6 µM	–	–	>23.2 µM	–	11.6 µM	1.45 µM	>23.2 µM	>11.6 µM	>23.2 µM	11.6 µM	>11.6 µM	>11.6 µM	2.8 µM	>23.2 µM	45 µM	>23.2 µM	killing ([28]; any concentration tested, through 4 minutes): no killing
